Experimental data as given in ChEMBL document CHEMBL1201862, “PubChem BioAssay data set” (2004).
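The compound was tested at five concentrations on cells cultured in 96-well plates, with a 48-hour exposure period. Abbreviation: GI50, concentration required for 50% inhibition of growth.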 The source made the active and inactive calls. No stated cut-off is given here; in the data, active = GI50 up to about 1.1 µM and inactive = higher.

Tests used:
Experiment in all cases: NCI tumour cell line growth inhibition, 48 h
UACC-257 = test system: UACC-257
HL-60 = test system: HL-60
SW-620 = test system: SW-620
SF-268 = test system: SF-268
LOX IMVI = test system: LOX IMVI
RPMI-8226 = test system: RPMI-8226
SK-OV-3 = test system: SK-OV-3
U-251 = test system: U-251
HOP-62 = test system: HOP-62
SNB-19 = test system: SNB-19
A549 = test system: A549
IGROV-1 = test system: IGROV-1
SNB-75 = test system: SNB-75
HT-29 = test system: HT-29
Malme-3M = test system: Malme-3M
HCT-116 = test system: HCT-116
SK-MEL-5 = test system: SK-MEL-5
CAKI-1 = test system: CAKI-1
OVCAR-5 = test system: OVCAR-5

| SMILES | GI50 (UACC-257) | GI50 (HL-60) | GI50 (SW-620) | GI50 (SF-268) | GI50 (LOX IMVI) | GI50 (RPMI-8226) | GI50 (SK-OV-3) | GI50 (U-251) | GI50 (HOP-62) | GI50 (SNB-19) | GI50 (A549) | GI50 (IGROV-1) | GI50 (SNB-75) | GI50 (HT-29) | GI50 (Malme-3M) | GI50 (HCT-116) | GI50 (SK-MEL-5) | GI50 (CAKI-1) | GI50 (OVCAR-5) |
| --- | --- | --- | --- | --- | --- | --- | --- | --- | --- | --- | --- | --- | --- | --- | --- | --- | --- | --- | --- |
| O=C1C=CC2OC(c3ccccc3)C(O)C2O1 (stereo not drawn) | 6.31 µM (inactive) | 1.4 µM (inactive) | 2.17 µM (inactive) | 5.53 µM (inactive) | 1.95 µM (inactive) | 1.39 µM (inactive) | 13.8 µM (inactive) | 10.7 µM (inactive) | 12 µM (inactive) | 11.4 µM (inactive) | 5.74 µM (inactive) | 8.99 µM (inactive) | 10.4 µM (inactive) | 4.53 µM (inactive) | 3.02 µM (inactive) | 2.49 µM (inactive) | 7.33 µM (inactive) | 2.85 µM (inactive) | 9.38 µM (inactive) |
| CSCSCC(CO)NC(=O)/C=C\c1c(C)[nH]c(=O)[nH]c1=O (stereo not drawn) | 48.6 µM (inactive) | 9.51 µM (inactive) | 15.7 µM (inactive) | 7.64 µM (inactive) | 14.1 µM (inactive) | 51.5 µM (inactive) | 11.1 µM (inactive) | 7.57 µM (inactive) | 38.8 µM (inactive) | 14.7 µM (inactive) | 77.1 µM (inactive) | 23.7 µM (inactive) | 16.3 µM (inactive) | 19.3 µM (inactive) | 8.18 µM (inactive) | 11.4 µM (inactive) | 21.5 µM (inactive) | 2.88 µM (inactive) | 57.3 µM (inactive) |
| COC(=O)[C@@H](O)[C@](O)(CCC(C)C)C(=O)O[C@@H]1C(OC)=C[C@]23CCCN2CCc2cc4c(cc2[C@H]13)OCO4 | 1.82 µM (inactive) | 0.349 µM (active) | 2.21 µM (inactive) | 0.984 µM (active) | 0.562 µM (active) | 1.34 µM (inactive) | 1.17 µM (inactive) | 0.869 µM (active) | 0.575 µM (active) | 0.373 µM (active) | 0.951 µM (active) | 1.07 µM (active) | 1.62 µM (inactive) | 0.891 µM (active) | 0.459 µM (active) | 0.407 µM (active) | 1.48 µM (inactive) | 1.77 µM (inactive) | 3.24 µM (inactive) |
| CN1CCc2c1nc(-c1ccc([N+](=O)[O-])cc1)c1c2N(C)CC1 | > 100 µM (inactive) | 60.1 µM (inactive) | > 100 µM (inactive) | > 100 µM (inactive) | 44.2 µM (inactive) | 48 µM (inactive) | > 100 µM (inactive) | > 100 µM (inactive) | 86.7 µM (inactive) | > 100 µM (inactive) | > 100 µM (inactive) | > 100 µM (inactive) | > 100 µM (inactive) | 25.5 µM (inactive) | > 100 µM (inactive) | 15.9 µM (inactive) | 97.3 µM (inactive) | 26.4 µM (inactive) | > 100 µM (inactive) |
| N/C(=N\O)N/N=C\c1ccccc1O | 16.2 µM (inactive) | 0.977 µM (active) | 13.1 µM (inactive) | 12.4 µM (inactive) | 5.48 µM (inactive) | 1.48 µM (inactive) | 31.3 µM (inactive) | 8.34 µM (inactive) | 11.2 µM (inactive) | 18.9 µM (inactive) | 6.01 µM (inactive) | 11.3 µM (inactive) | 9.48 µM (inactive) | 4.19 µM (inactive) | 22.4 µM (inactive) | 4.85 µM (inactive) | 10 µM (inactive) | 3.84 µM (inactive) | 37.5 µM (inactive) |
| Oc1ccc(Cl)cc1C1=Nn2c(COc3ccc4c(c3)CCCC4)nnc2SC1 | 16.3 µM (inactive) | 15 µM (inactive) | 16.8 µM (inactive) | 16.4 µM (inactive) | 14 µM (inactive) | 4.99 µM (inactive) | 16.9 µM (inactive) | 15.3 µM (inactive) | 13.2 µM (inactive) | 20.7 µM (inactive) | 25.5 µM (inactive) | 11.6 µM (inactive) |  |  | > 100 µM (inactive) | 6.56 µM (inactive) | 5.25 µM (inactive) | 19.4 µM (inactive) | 17.2 µM (inactive) |
| CCOC(=O)C1C(c2cc(OC)c(O)c(OC)c2)c2cc3c(cc2OC1(C)O)OCO3 (stereo not drawn) | 61.9 µM (inactive) | > 100 µM (inactive) | 42.9 µM (inactive) |  | 93.1 µM (inactive) | 71.1 µM (inactive) | > 100 µM (inactive) | 78.9 µM (inactive) | 14.3 µM (inactive) | > 100 µM (inactive) | 45.6 µM (inactive) | > 100 µM (inactive) | 16.5 µM (inactive) | 41.1 µM (inactive) | > 100 µM (inactive) | 47.3 µM (inactive) | 36 µM (inactive) | 26 µM (inactive) |  |
| CC(=O)OC1C=C(C=O)C(O)(C=O)C2(C)CCCC(C)(C)C12 (stereo not drawn) | 2 µM (inactive) | 0.249 µM (active) | 0.485 µM (active) | 2.42 µM (inactive) | 0.942 µM (active) | 0.519 µM (active) | 4.34 µM (inactive) | 3.8 µM (inactive) | 6.38 µM (inactive) | 5.6 µM (inactive) | 4.54 µM (inactive) | 2.49 µM (inactive) | 2.4 µM (inactive) | 1.39 µM (inactive) | 0.971 µM (active) | 0.989 µM (active) | 1.17 µM (inactive) | 1 µM (active) | 4.55 µM (inactive) |
